Literature values as cited in patent publication US20210007979A1 (FULTON MEDICINAL S.P.A., priority 2018, published 2021).
Structures can show the parent of a compound that is named as a salt.

How the values were obtained:
[1] = not given; remark: listed apart in the source

Solubility in water: sparingly soluble | Permeability of the oral mucosae [1]: low permeability
Compound: CCCc1nn(C)c2c(=O)[nH]c(-c3cc(S(=O)(=O)N4CCN(C)CC4)ccc3OCC)nc12 [sildenafil citrate, Sildenafil citrate]
